{"source": "patent EP0414895A1", "about": "“OROTATE OF $g(a)-AMINO-$g(b)-PHENYL-BUTYRIC ACID” (NAUCHNO-PROIZVODSTVENNOE OBIEDINENIE \"BIOLAR\", priority 1989, dated 1990)", "key": {"Mäuse [1]": {"tested_on": "Mäuse", "test": "Natriumäthaminal intoxication, sleep duration, mice", "assay_type": "in vivo", "protocol": "Ausserdem wurde die Wirkung der beanspruchten Verbindung auf die durch Natriumäthaminal erzeugte Intoxikation untersucht. Die Versuche wurden an männlichen Mäusen und Ratten in Gruppen zu 8 bis I0 Tieren angestellt. Natriumäthaminal wurde intraperitoneal in einner Dosis von I00 mg/kg I5 min nach der enteralen Verabreichung der beanspruchten Verbindung oder der Kontrollarzneimittel eingeführt. Es wurde die einmalige und chronische Einwirkung (während I2 bis I4 Tage einmal täglich) von der neuen Verbindung, γ -Amino- β - -phenylbuttersäurehydrochlorid und Pyrazetam untersucht. Es wurde die Dauer der Seitenlage - des Schlafs der Tiere bestimmt. Die Ergebnisse dieser Untersuchung sind in Tabelle 23 (für Mäuse) und 24 (für Ratten) angeführt."}, "Mäuse [2]": {"tested_on": "Mäuse", "test": "Thresholds of emotional reactivity and aggressiveness on electric pain stimulation, mice", "assay_type": "in vivo", "source_text": "Es wurde auch die emotionelle Aktivität und Aggressivität der Tiere auf dem Wege der elektrischen Schmerzreizung untersucht.\nIn einer Kammer von 20 x 20 x 25 cm Ausmass, deren Boden - ein Metallgitter aus Stangen darstellt, wurde ein Paar Tiere untergebracht (männliche Mäuse) und es wurde der Wechselstrom durchgelassen. Die Spannung wurde dosenartig auf 5 V solange erhöht, bis der Strom das Piepsen (die Schwelle der emotionellen Reaktivität) und die Schlägerei der Tiere (die Schwelle der Aggressivität) auslöste. Jede Spannungsgrösse wurde innerhalb von 5 sec zweimal in einem Zeitabstand von 20 bis 50 Sekunden aufrechterhalten. Die Kontrolle des Benehmens der Tiere begann man I0 Minuten nach der Einführung der oben erwähnten Verbindungen. Die Angaben sind in Tabellen 3, 4 angeführt."}, "Ratten [3]": {"tested_on": "Ratten", "test": "Thresholds of emotional reactivity and aggressiveness on electric pain stimulation, rats", "assay_type": "in vivo"}, "Mäuse [4]": {"tested_on": "Mäuse", "test": "Swimming test at 40°C", "assay_type": "in vivo", "conditions": "for Schwimmzeit: 40°C", "source_text": "Der Einfluss der beanspruchten Verbindung auf die physische Toleranz der Tiere wurde nach dem Schwimmtest der Mäuse und Ratten untersucht. Die Versuche wurden in einer Wanne von […] Fläche durchgeführt. Die Tiergruppe (8 bis I0 Mäuse oder Ratten) wurde ins Wasser gebracht und es wurde die Zeit der Schwimmfähigkeit bestimmt. Die neue Verbindung und γ -Amino- β - -phenylbuttersäurehydrochlorid wurden enteral und intraperitoneal I Stunde oder 3 Stunden vor dem Schwimmbeginn eingeführt. Die Untersuchung wurde sowohl nach der einmaligen als auch nach der chronischen (innerhalb von 20 Tagen einmal täglich) Einführung der genannten Verbindungen durchgeführt. Die Versuche wurden bei 3 Temperaturen angestellt: 2°C (Tabelle I7), 25°C (Tabelle I8) und 40°C (Tabelle I9)."}, "Mäuse [5]": {"tested_on": "Mäuse", "test": "Kalziumchlorid arrhythmia model, LD50 of Kalziumchlorid", "assay_type": "in vivo", "conditions": "Kalziumchlorid i.v. combined with compound 50 mg/kg", "protocol": "Die antiarrhythmischen Eigenschaften der erfindungsgemässen Verbindung wurden auch am Modell der Kalziumchloridarrhythmie untersucht. Der Mäusengruppe (I0 Gruppe) wurde einmalig die Kalziumchloridlösung intravenös im einzelnen und in Kombination mit γ -Amino-β -phenylbuttersäurehydrochlorid eingeführt. Die Dosis der letzteren betrug 50 mg/kg. Es wurde LD₅₀ für Kalziumchlorid bestimmt."}, "Ratten [6]": {"tested_on": "Ratten", "test": "Hypoxia by subcutaneous Natriumnitroprussid, survival, rats", "assay_type": "in vivo", "conditions": "Natriumnitroprussid 20 mg/kg s.c.", "protocol": "Die […] Hypoxie wurde durch die subkutane Einführung von Natriumnitroprussid in einer Dosis von 20 mg/kg den Gruppen von Mäusen und Ratten zu I0 Stück in der Gruppe erzeugt. Natriumnitroprussid wurde 60 min nach der Einführung der Prüfverbindungen verabreicht. Die Angaben sind in Tabelle I5 (für Mäuse) und I6 (für Ratten) angeführt."}, "[7]": {"test": "Habituation study: body mass", "assay_type": "in vivo, Mäuse", "conditions": "75 mg/kg bzw. 48 mg/kg i.p. twice daily, 15 to 20 days", "protocol": "Zur Untersuchung der Gewöhnung an die Wirkung der erfindungsgemässen Verbindung wurde die Dynamik der Benehmungseffekte an Mäusen beiderlei Geschlechts untersucht. In jeder Gruppe waren je I2 bis I8 Tiere. Die erfindungsgemässe Verbindung und γ -Amino- β - -phenylbuttersäurehydrochlorid wurden intraperitoneal in Dosen von 75 mg/kg bzw. 48 mg/kg zweimal am Tag eingeführt. Es wurden die Körpermasse, der Einfluss auf die motorische Aktivität (im Aktometer) und auf die emotionelle Reaktivität aud dem Wege der elektrischen Schmerzreizung untersucht. Die Tiere wurden innerhalb von 15 bis 20 Tagen untersucht. […] Der sedative Effekt der beanspruchten Verbindung war während der ganzen Versuchsperiode aufrechterhalten (Tabelle 7)."}, "Mäuse [8]": {"tested_on": "Mäuse", "test": "Hypoxia in barochamber (11000 m), survival", "assay_type": "in vivo", "protocol": "Nach einer der Methoden wurden die Mäuse in der Barokammer untergebracht, die für die Höhe von II000 m über dem Meeresspiegel gehoben wurde. Die Hebung wurde mit einer Geschwindigkeit von 50 m/s verwirklicht. Der atmosphärische Tiefdruck wurde mit Hilfe der elektrischen Vakuumpumpe geschaffen.\nDie beanspruchte Verbindung, Natriumoxybutyrat und Pyrazetam wurden 60 min vor dem Versuch enteral eingeführt. Der Schutzeffekt wurde nach der Überlebensdauer eingeschätzt. Die Angaben sind in Tabelle I0 angeführt."}, "[9]": {"test": "Solubility (description of the substance)", "assay_type": "physicochemical"}, "Mäuse [10]": {"tested_on": "Mäuse", "test": "Hemic hypoxia by intraperitoneal Natriumnitrit, survival", "assay_type": "in vivo", "conditions": "Natriumnitrit 200 mg/kg i.p. 15 min after compound", "protocol": "Die gemische Hypoxie wurde durch die intraperitoneale und subkutane Verabreichung von Natriumnitrit in einer Dosis von 200 mg/kg den Gruppen zu I0 […] I5 min nach der Einführung der Prüfverbindungen erzeugt. Die Angaben sind in der Tabelle I2 (bei der intraperitonealen Einführung von Natriumnitrit) und Tabelle I3 (bei der subkutanen Einführung von Natriumnitrit) angeführt."}, "Mäuse [11]": {"tested_on": "Mäuse", "test": "Hypoxia in hermetically closed vessel, survival", "assay_type": "in vivo", "conditions": "closed vessel 80 cm³", "source_text": "Nach der zweiten Methode wurden die Mäuse in einem hermetisch verschlossenen Gefäss von 80 cm³ Inhalt untergebracht, dabei wurde die Luft nicht abgesaugt, und es wurden keine CO₂-Sorptionsmittel zugegeben. Die Prüfverbindungen wurden I Stunde vor dem Beginn des Versuchs intraperitoneal eingeführt (siehe Tabelle II)."}}, "note": "Counter-ions that a name gives are not always drawn."}
{"compound": "NCC(CC(=O)O)c1ccccc1", "note": "(stereo not drawn) [γ-Amino-β-phenylbutter-säurehydrochlorid, γ -Amino- β -phenylbuttersäurehydrochlorid, reference compound]", "values": [{"measurement": "Schlafdauer", "setting": "Mäuse [1]; 35 mg/kg chronic, 12 days + Natriumäthaminal 100 mg/kg i.p.", "value": "390,0±37 min"}, {"measurement": "Schlafdauer", "setting": "Mäuse [1]; 35 mg/kg single + Natriumäthaminal 100 mg/kg i.p.", "value": "274,3±32 min"}, {"measurement": "Spannung in V, Schwelle der emotionellen Reaktivität", "setting": "Mäuse [2]; 100 mg/kg", "value": "24,2±0,8 V"}, {"measurement": "Spannung in V, die Schwelle der Aggressivität", "setting": "Ratten [3]; 80,0 mg/kg", "value": "44,6±0,6 V"}, {"measurement": "Schwimmzeit", "setting": "Mäuse [4]; 35 mg/kg chronic, 20 days", "value": "58±7,2 min"}, {"measurement": "Schwimmzeit", "setting": "Mäuse [4]; 35 mg/kg single", "value": "37,8±8 min"}, {"measurement": "Einfluss auf LD₅₀ von Kalziumchlorid", "setting": "Mäuse [5]", "value": "keinen Einfluss"}, {"measurement": "Überlebensdauer", "setting": "Ratten [6]; 35 mg/kg chronic, 10 days once daily", "value": "876,6±90 sec"}, {"measurement": "Überlebensdauer", "setting": "Ratten [6]; 35 mg/kg single", "value": "1359,0±100 sec"}, {"measurement": "Körpermasse", "setting": "[7]", "value": "veränderte sich wesentlich nicht"}]}
{"compound": "γ -Amino- β -phenylbuttersäureorotat [Erfindungsgemässe Verbindung]", "values": [{"measurement": "Schlafdauer", "setting": "Mäuse [1]; 50 mg/kg chronic, 12 days + Natriumäthaminal 100 mg/kg i.p.", "value": "178,4±14 min"}, {"measurement": "Schlafdauer", "setting": "Mäuse [1]; 50 mg/kg single + Natriumäthaminal 100 mg/kg i.p.", "value": "261,3±21 min"}, {"measurement": "Überlebensdauer", "setting": "Mäuse [8]; 50,0 mg/kg enteral 60 min before", "value": "6,2±1,4 min"}, {"measurement": "Überlebensdauer", "setting": "Mäuse [8]; 100,0 mg/kg enteral 60 min before", "value": "7,5±2,1 min"}, {"measurement": "Überlebensdauer", "setting": "Mäuse [8]; 200,0 mg/kg enteral 60 min before", "value": "15,2±1,8 min"}, {"measurement": "Spannung in V, Schwelle der Agressivität", "setting": "Mäuse [2]; 37 mg/kg", "value": "29,8±2,4 V"}, {"measurement": "Spannung in V, die Schwelle der emotionnellen Reaktivität", "setting": "Ratten [3]; 20,0 mg/kg", "value": "23,4±0,8 V"}, {"measurement": "Spannung in V, die Schwelle der emotionnellen Reaktivität", "setting": "Ratten [3]; 40,0 mg/kg", "value": "27,6±0,4 V"}, {"measurement": "Spannung in V, die Schwelle der Aggressivität", "setting": "Ratten [3]; 60,0 mg/kg", "value": "44,8±0,6 V"}, {"measurement": "Spannung in V, die Schwelle der emotionnellen Reaktivität", "setting": "Ratten [3]; 150,0 mg/kg", "value": "34,2±2,2 V"}, {"measurement": "Schwimmzeit", "setting": "Mäuse [4]; 50 mg/kg single", "value": "57,6±5,6 min"}, {"measurement": "Schwimmdauer grösser um das ...fache bei einer Temperatur von 40°C", "setting": "Mäuse [4]; after 20 days chronic administration, Tabelle I9, compared with γ-Amino-β-phenylbuttersäurehydrochlorid as worded", "value": "2,5 fache"}, {"measurement": "Löslichkeit in wässrigen Alkalilösungen", "setting": "[9]; aqueous alkali solutions", "value": "löslich"}, {"measurement": "Wasserlöslichkeit", "setting": "[9]; water", "value": "schwer wasserlöslich"}, {"measurement": "Überlebensdauer", "setting": "Mäuse [10]; 50,0 mg/kg", "value": "33,8±1,2 min"}, {"measurement": "Überlebensdauer", "setting": "Mäuse [10]; 100,0 mg/kg", "value": "53,1±4,1 min"}, {"measurement": "Überlebensdauer", "setting": "Mäuse [10]; 200,0 mg/kg", "value": "46,8±2,7 min"}, {"measurement": "Überlebensdauer", "setting": "Ratten [6]; 50 mg/kg chronic, 10 days once daily", "value": "1133,0±54 sec"}, {"measurement": "Überlebensdauer", "setting": "Ratten [6]; 50 mg/kg single", "value": "1247,0±94 sec"}, {"measurement": "Körpermasse", "setting": "[7]", "value": "veränderte sich wesentlich nicht"}, {"measurement": "Überlebensdauer", "setting": "Mäuse [11]; 50,0 mg/kg i.p. 1 h before", "value": "10,8±1,2 min"}, {"measurement": "Überlebensdauer", "setting": "Mäuse [11]; 100,0 mg/kg i.p. 1 h before", "value": "15,2±1,4 min"}, {"measurement": "Überlebensdauer", "setting": "Mäuse [11]; 200,0 mg/kg i.p. 1 h before", "value": "27,6±2,6 min"}]}
